# Values quoted from earlier work as cited in patent US20240252571A1, “Hemp Essential Oil” (priority 2023, published 2024).
# “Also recorded” adds a separate entry of the source. Where two headings read alike, the source gives them in different places. Where a SMILES comes first, the peptide text is derived from it.
# What was measured:
# [1] = tested on: Methicillin-resistant Staphylococcus aureus (MRSA)
# human skin equivalents = conditions: compared with CBD
# [2] = tested on: Human dermal fibroblasts (HDFs); conditions: compared with vitamin C
# [3] = tested on: Interleukin-1β, -6, -8, tumor necrosis factor α release; conditions: inducers UVA, UVB, chemical, C. acnes
# SZ95 sebocytes [4] = conditions: for effect on the lipid synthesis-inhibitory (lipostatic) action of CBD: coapplication with CBD
# itching = conditions: murine models
# SZ95 sebocytes [5] = tested on: SZ95 sebocytes
# mild AD = conditions: pediatric population
# Enterococcus faecalis = conditions: E. faecalis
# [6] = tested on: Methicillin-resistant Staphylococcus epidermidis (MRSE)
# [7] = tested on: intracellular calcium concentration of SZ95 sebocytes; conditions: for effect on the CBD-induced increase of [Ca2+]IC: with CBD
# human sebaceous glands = conditions: ex vivo hSOC
# [8] = tested on: TNFA, IL1B and IL6 expression in human sebocytes
# [9] = tested on: ionic currents of SZ95 sebocytes; conditions: CBD 10 μM, voltage ramp, -90 and +90 mV
# [10] = ethosomal carriers, murine model
# [11] = CBD 1-10% gel, monoarthritic rat; plasma concentration linear with dose
# [12] = tested on: Normal Human Epidermal Keratinocytes (NHEK); conditions: HMOX1 most upregulated
# mice epidermis = conditions: topical application
# [13] = tested on: allergic contact dermatitis model; conditions: experimental allergic contact dermatitis model
# Listeria monocytogenes = conditions: L. monocytogenes
# [14] = in vitro diffusion, human tissue
# [15] = lower CBD concentrations, 1-100 nM
compound,measurement,setting,value
"CCCCCc1cc(O)c(C/C=C(\C)CCC=C(C)C)c(O)c1 [CBG, cannabigerol]",activity against a variety of MRSA strains,[1],potent activity
same,genes regulated,human skin equivalents,regulates more genes than CBD
same,reactive oxygen species levels,[2],reduce reactive oxygen species levels in HDFs better than vitamin C
same,pro-inflammatory cytokine release,[3],inhibits
COc1cc(CNC(=O)CCCC/C=C/C(C)C)ccc1O [capsaicin],lipostatic action by activation of TRPV1,SZ95 sebocytes [4],potent lipostatic actions
"CCCCCc1cc(O)c2c(c1)OC(C)(C)[C@@H]1CCC(C)=C[C@@H]21 [THC, tetrahydrocannabinol]",itching,itching,reduce itching
"CCCCC/C=C\C/C=C\C/C=C\C/C=C\CCCC(=O)NCCO [AEA, N-arachidonoyl ethanolamide]",lipid production in human sebocytes,SZ95 sebocytes [4]; low concentrations,stimulate lipid production
same,apoptosis of human sebocytes,SZ95 sebocytes [5]; higher levels,induces apoptosis
Cc1c(C(=O)NN2CCCCC2)nn(-c2ccc(Cl)cc2Cl)c1-c1ccc(I)cc1 [AM251],effect on the lipid synthesis-inhibitory (lipostatic) action of CBD,SZ95 sebocytes [4],neither CB1- nor CB2-specific antagonists (AM251 and AM630) were able to antagonize
O=C(CCCCCCCC(=O)NCCO)NCCO [Adelmidrol],efficacy in mild AD,mild AD,effective in treating mild AD
"CC[C@H](C)[C@H](N)C1=N[C@H](C(=O)N[C@@H](CC(C)C)C(=O)N[C@H](CCC(=O)O)C(=O)N[C@H](C(=O)N[C@H]2CCCCNC(=O)[C@H](CC(N)=O)NC(=O)[C@@H](CC(=O)O)NC(=O)[C@H](Cc3cnc[nH]3)NC(=O)[C@@H](Cc3ccccc3)NC(=O)[C@H]([C@@H](C)CC)NC(=O)[C@@H](CCCN)NC2=O)[C@@H](C)CC)CS1 [BAC, Bacitracin] (HELM PEPTIDE1{[CC[C@H](C)[C@H](N)C1=N[C@H](C(=O)[*:2])CS1].L.[dE].I.K.[NCCC[C@@H](N[*:1])C(=O)[*:2]].I.[dF].H.[dD].N}$PEPTIDE1,PEPTIDE1,5:R3-11:R2$$$V2.0)",reduction of MIC of BAC versus BAC alone,"[1]; MRSA, combined with ½ MIC of C3D",≥ 64 fold
same,reduction of MIC of BAC versus BAC alone,Enterococcus faecalis; combined with ½ MIC of C3D,≥ 64 fold
same,reduction of MIC of BAC versus BAC alone,[6]; combined with ½ MIC of C3D,≥ 64 fold
CCCCCCCCCCCCCCCC(=O)NCCO [PEA],itching,itching,reduce itching
Cc1c(C(=O)Nc2cccc(C(F)(F)F)c2)cc(-c2ccccc2)n1CCCN1CCOCC1 [HC067047],basal lipid synthesis,SZ95 sebocytes [4]; TRPV4 antagonist alone,did not affect basal lipid synthesis
same,effect on the lipid synthesis-inhibitory (lipostatic) action of CBD,SZ95 sebocytes [4],prevented
same,effect on the CBD-induced increase of [Ca2+]IC,[7],antagonized
COc1ccc(C(=O)c2c(C)n(CCN3CCOCC3)c3cc(I)ccc23)cc1 [AM630],effect on the lipid synthesis-inhibitory (lipostatic) action of CBD,SZ95 sebocytes [4],neither CB1- nor CB2-specific antagonists (AM251 and AM630) were able to antagonize
"C=C(C)[C@@H]1CCC(C)=C[C@H]1c1c(O)cc(CCCCC)cc1O [CBD, cannabidiol]",lipid synthesis induced by arachidonic acid (AA),SZ95 sebocytes [4],effectively inhibited
same,lipid synthesis induced by the combination of linoleic acid and testosterone (LA-T),SZ95 sebocytes [4],effectively inhibited
same,lipogenesis,"SZ95 sebocytes [4]; 10 μM CBD, 6-day treatments",decreased
same,lipogenesis,SZ95 sebocytes [4]; 50 μM CBD,decreased lipogenesis
same,basal neutral (sebaceous) lipid synthesis,"SZ95 sebocytes [4]; CBD 1-10 μM, 24-hour treatment",neither semiquantitative Oil Red O nor quantitative Nile Red staining indicated changes; also recorded: no changes
same,inhibition of the lipogenic action of AEA,"SZ95 sebocytes [4]; CBD 1-10 μM, dose-dependent",markedly inhibited; also recorded: quell the lipogenic actions in a dose-dependent manner
same,"AA-enhanced ""pathological"" lipogenesis (lipidome)",SZ95 sebocytes [4]; acne-like conditions with AA,almost completely normalized
same,lipid synthesis induced by arachidonic acid (AA),SZ95 sebocytes [4]; listed as CDI,inhibit extraneous lipid synthesis
same,lipid synthesis induced by the combination of linoleic acid and testosterone (LA-T),SZ95 sebocytes [4]; listed as CDI,inhibit extraneous lipid synthesis
same,AA-induced lipid synthesis,SZ95 sebocytes [4]; [15],did not influence
same,basal lipid synthesis,SZ95 sebocytes [4]; [15],did not influence
same,cell number,"SZ95 sebocytes [5]; 10 μM CBD, elongated application, 6-day treatments",decreased; also recorded: reduced
same,cytotoxicity,SZ95 sebocytes [5]; 50 μM CBD,evoked apoptosis-driven cytotoxicity
same,"cellular viability, apoptosis, necrosis",SZ95 sebocytes [5]; CBD 1-10 μM,did not decrease cellular viability or induce either apoptosis or necrosis
same,proliferation of SZ95 sebocytes,SZ95 sebocytes [5]; CBD 1-10 μM,significantly reduce
same,basal lipogenesis in situ,human sebaceous glands,decreased basal lipogenesis
same,expression of the proliferation marker MKI67,human sebaceous glands,markedly suppressed
same,lipogenic action of AEA in situ,human sebaceous glands,completely prevented
same,IL1B expression,[8]; LPS-induced,normalize
same,IL6 expression,[8]; LPS-induced,normalize
same,elevation of TNFA expression,[8]; induced by TLR2 activator lipoteichoic acid (LTA),completely prevented
same,elevation of TNFA expression,[8]; induced by TLR4 activator LPS,completely prevented
same,elevation of TNFA expression,[8]; induced by pro-acne LA-T combination,prevent
same,membrane currents,[9],induced a mostly outwardly rectifying current and a positive shift in the reversal potential
same,intracellular calcium concentration ([Ca2+]IC),[7],significantly increased
same,transdermal delivery,[10],successful transdermal delivery
same,absorption after topical application,[11],well-absorbed
same,expression of NRF2 target genes,[12],induced the expression of several NRF2 target genes
same,levels of HMOX1 and expression of keratins 16 and 17,mice epidermis,increased
same,peroxide-induced reduction of polyunsaturated fatty acids in the cell membrane,human keratinocytes,protective effect
same,oxidative stress response,human keratinocytes; UVB irradiation and hydrogen peroxide,balance the oxidative stress response
same,anti-inflammatory properties,[13],exhibit anti-inflammatory properties
same,activity against a variety of MRSA strains,[1],potent activity
same,Minimum Inhibitory Concentration (MIC),[1]; MRSA,4 µg/mL
same,Minimum Inhibitory Concentration (MIC),Listeria monocytogenes,4 µg/mL
same,Minimum Inhibitory Concentration (MIC),Enterococcus faecalis,8 µg/mL
same,Minimum Inhibitory Concentration (MIC),[6],8 µg/mL
same,reactive oxygen species levels,[2],reduce reactive oxygen species levels in HDFs better than vitamin C
same,permeation,[14],demonstrated CBD's permeation potential
N.N.N.N.N.N.N.N.N.N.N.N.N.N.[Cl-].[Cl-].[Cl-].[Cl-].[Cl-].[Cl-].[O-2].[O-2].[Ru+3].[Ru+3].[Ru+4] [ruthenium red],effect on the CBD-induced increase of [Ca2+]IC,[7],antagonized
